# Results reported in patent US20230048678A1, “ICAN DERIVATIVES FOR ANTIFUNGAL USE” (DEBRECENI EGYETEM, priority 2019, published 2023).
# “And” between values parts separate entries of the source, which are not always exact repeats. Equal values may be shown once.
# Tests used:
# [1] = tested on: clinical Candida isolates (C. albicans, C. krusei, C. tropicalis, C. glabrata, C. parapsilosis); assay: Broth microdilution, MIC summarised over all clinical Candida isolates; type: cell-based; conditions: range or bound over all tested isolates of five Candida species
# Protocol: The present inventors have discovered that 1-amino-5-isocyanonaphthalene (ICAN) and its derivatives exert excellent antifungal activity against a broad range of Candida species. […] Nevertheless, proper formulation and/or substitution with solubility enhancer groups on the naphthalene core may increase its effectiveness. Based on MIC values (MICPI=0.04−0.3 μg/ml MICTI=0.6 μg/ml) and its low cytotoxicity 1,1-N-dimethylamino-5-isocyanonaphthalene (DIMICAN) was selected to be tested on clinical Candida isolates. […] Amphotericin B (AMB) is an antifungal agent which is effective against a number of medically important fungi. The in vivo applicability of DIMICAN was tested on immunosuppressed mice and control experiments were also conducted with amphotericin B. In the model of acute invasive candidiasis, neutropenic mice were infected intravenously with C. albicans isolate 3666 (3×10^4 cfu/mouse) to establish an acute infection, and all untreated control animals died within 6 days. […]
# The tested C. albicans, C. tropicalis, C. parapsilosis, C. glabrata and C. krusei ATCC strains and clinical isolates are listed in Table 2. MICs were determined according to the CLSI M27-A3 [22]. […] MICs were read visually after 48-h incubation at 35° C. using the partial (50%) inhibition (for ICAN derivatives) (PI) and total inhibition (for AMB and ICAN derivatives) (TI) criteria. MICs were determined at least twice. […]
# [2] = tested on: C. albicans SC5314, C. krusei ATCC 6258 and C. parapsilosis ATCC 22019; assay: CLSI broth microdilution, MIC summarised over the three Candida test strains; type: cell-based; conditions: value or range over the three Candida strains of Table 1, total inhibition
# Protocol: (§1) ICAN has 3 key moieties, namely the amino, naphthalene and isonitrile. To find out which ones of them are essential for the antifungal behavior and to design more efficient derivatives, comparative studies were carried out, where one of the moieties was exchanged or eliminated. All ICAN derivatives were tested against C. albicans SC5314, C. krusei ATCC 6258 and C. parapsilosis ATCC 22019. The antifungal agents were dissolved in 100% DMSO and diluted further in RPMI-1640 (with L-glutamine but without bicarbonate) and buffered to pH 7.0 with 0.165 M morpholinopropanesulfonic acid (MOPS). MICs were read visually after 48-h incubation at 35° C. using the partial (50%) inhibition (for ICAN derivatives) (PI) and total inhibition (for AMB and ICAN derivatives) (TI) criteria. MICs were determined at least twice.
# (§2) The tested C. albicans, C. tropicalis, C. parapsilosis, C. glabrata and C. krusei ATCC strains and clinical isolates are listed in Table 2. MICs were determined according to the CLSI M27-A3 [22]. Antifungal agents were dissolved in 100% DMSO and diluted further in RPMI-1640 (with L-glutamine but without bicarbonate) (Sigma, Budapest, Hungary), and buffered to pH 7.0 with 0.165 M morpholinopropanesulfonic acid (MOPS; Sigma, Budapest, Hungary). The final concentration ranges used for AMB and ICAN derivatives were 0.125 to 4 μg/ml and 0.04 to 20 μg/ml, respectively. Yeast cell suspensions were prepared in RPMI 1640 medium and were adjusted to give a final inoculum concentration of 0.5×10^3 to 2.5×10^3 cells/ml. MICs were read visually after 48-h incubation at 35° C. using the partial (50%) inhibition (for ICAN derivatives) (PI) and total inhibition (for AMB and ICAN derivatives) (TI) criteria. MICs were determined at least twice. For amphotericin B isolates with MIC values of ≤2 mg/L were considered wild-types. [Pfaller M A, 2012]
# C. albicans isolate 3666 = assay: Murine model of acute invasive candidiasis, survival; type: in vivo, BALB/c mice; conditions: neutropenic mice, 3×10^4 cfu/mouse iv, 5 mg/kg ip once daily for 5 days, olive oil/water emulsion; untreated controls 0%, P<0.05
# Protocol: In the model of acute invasive candidiasis, neutropenic mice were infected via the lateral tail vein with C. albicans isolate 3666 (3×10^4 cfu/mouse) to establish an acute infection. It is well understood that any other fungal pathogens of animals can be used for this purpose. In the example provided herein all untreated control animals died within 6 days. DIMICAN (5 mg/kg) prolonged the survival period of animals compared to non-treated infected controls (P<0.05; 80 versus 0% survivors at day 7 post-infection; FIG. 3a). It should be noted, however, that DIMICAN was administered as intraperitoneal injection which contained DIMICAN as an emulsion in reagent grade olive oil and water. While emulsions are a kind of preferred options in the preparations of the invention, preparing alternative or improved formulations are within the skills of a person skilled in the art.
# We used 10-12 week-old female BALB/c mice for all experiments. […] Mice were given food and water ad libitum and were monitored daily. […]
# Survival effects were analyzed by the Kaplan—Meier log-rank test. Kidney burden was analysed using a Kruskal—Wallis test with Dunn's posttest for multiple comparisons [Foldi R 2012, Kovacs R 2014].
# C. krusei ATCC 6258 = assay: CLSI broth microdilution susceptibility (Table 1); type: cell-based; conditions: 48 h, 35° C.
# Protocol: as §1, §2
# [3] = tested on: C. parapsilosis ATCC 22019; assay: CLSI broth microdilution susceptibility (Table 1); type: cell-based; conditions: 48 h, 35° C.
# Protocol: as §1, §2
# C. albicans SC5314 = assay: CLSI broth microdilution susceptibility (Table 1); type: cell-based; conditions: 48 h, 35° C.
# Protocol: as §1, §2
# human cell cultures = assay: MTT bio assay cytotoxicity; type: cell-based; conditions: MTT bio assay technique
smiles,measurement,setting,value
"[C-]#[N+]c1cccc2c(N(C)C)cccc12 [DIMICAN, N,N-dimethyl-1-amino-5-isocyanonaphthalene]",total minimum inhibitory concentration (MICTI),[1],0.08 to 1.25 mg/L
same,MICTI,[2],0.6 µg/mL and 0.3 to 0.6 µg/mL
same,survivors at day 7 post infection,C. albicans isolate 3666,80%
same,MICPI,C. krusei ATCC 6258; partial (50%) inhibition,0.15 µg/mL
same,MICTI,C. krusei ATCC 6258; total inhibition,0.3 µg/mL
same,MICPI,[3]; partial (50%) inhibition,0.15 µg/mL
same,MICTI,[3]; total inhibition,0.6 µg/mL
same,MICPI,C. albicans SC5314; partial (50%) inhibition,≤0.04 µg/mL
same,MICTI,C. albicans SC5314; total inhibition,0.6 µg/mL
same,LD50,human cell cultures,13 µg/mL
